The record followed here is patent US20070203066A1, “Compositions and methods for inhibiting cellular proliferation” (priority 2005, published 2007).

This assay deals with HUVECs. The class given is cell-based. To be noted: HUVEC proliferation, bFGF at 10 ng/ml or VEGF at 5 ng/ml, 48 hours, BrdU incorporation; read-out: IC50 on HUVECs. A digest of the protocol:
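HUVECs seeded at 5,000 cells/well in EBM with 2% FCS, adhered ≥12 hours, then stimulated with bFGF 10 ng/ml or VEGF 5 ng/ml plus varying peptide concentrations. After 48 hours at 37 ° C, 5% CO2, proliferation inhibition read by BrdU incorporation.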
A general note: Incorporation of labelled thymidine or its analogues reports DNA synthesis.

Non-standard residues stand in square brackets, D forms with d. Primed or numbered codes have the meaning given here. No end group written: not given here. Ida = iminodiacetic acid linker, its two carboxyls bind the Lys side-chain amines of two peptides, giving a homodimer; Ida(3) = iminodiacetic acid linker, Lys side-chain amines bound to its two carboxyl groups; Aib = CC(C)(N)C(=O)O Where only a bound is given, the exact number is not on record here.

As for “285 (Ac-RRRRHQAVHIYFK-NH2; not fully specified (residue 13); also: homodimer via Ida linker on Lys13 side chain) [compound 285]”, the IC50 is less than 10 µM.
With “286 (Ac-RRRRAQHVHIYFK-NH2; not fully specified (residue 13); also: homodimer via Ida linker on Lys13 side chain) [compound 286]”, the IC50 is less than 10 µM.
For “287 (Ac-RRRRHQHVHIYFK-NH2; not fully specified (residue 13); also: homodimer via Ida linker on Lys13 side chain) [compound 287]”, the IC50 is less than 10 µM.
Take “298 (Ac-ARRRRQRVA[Aib]FK-NH2; not fully specified (residue 12); also: homodimer via Ida linker on Lys12 side chain) [compound 298]”: the IC50 was more than 30 µM.
In the case of “299 (Ac-RRRRRQAVRIGIGFK-NH2; also: homodimer: Lys15 side chain bound to Ida linker) [compound 299]”, the IC50 was less than 10 µM.
Under “300 (Ac-RRRRRQAVRIPIPFK-NH2; not fully specified (residue 15); also: homodimer: Lys15 side chain bound to Ida linker) [compound 300]” stands 10 to 30 µM; under “301 (Ac-RRRRRQAVRITITFK-NH2; not fully specified (residue 15); also: homodimer: Lys15 side chain bound to Ida linker) [compound 301]”, less than 10 µM; under “302 (Ac-RRRRRQAVRIAIAFK(Ida)-NH2; also: homodimer via Ida linker on Lys15 side chain) [compound 302]”, less than 10 µM.
On to “303 (Ac-RRRRRQAVRIQIQFK(Ida)-NH2; also: homodimer via Ida linker on Lys15 side chain) [compound 303]”, for which the IC50 was less than 10 µM.
On to “304 (Ac-RRRRRQAVRIDIDFK(Ida)-NH2; also: homodimer via Ida linker on Lys15 side chain) [compound 304]”, for which the IC50 was less than 10 µM.
Under “305 (Ac-RRRRRQAVRIIK(Ida)VN; also: homodimer via Ida linker on Lys12 side chain) [compound 305]” stands less than 10 µM; under “306 (Ac-RRRRRQAVRIK(Ida)FV; also: homodimer via Ida linker on Lys11 side chain) [compound 306]”, less than 10 µM.
“307 (Ac-RRRRRQAVRK(Ida)IFV; also: homodimer via Ida linker on Lys10 side chain) [compound 307]”: the IC50 was less than 10 µM.
For “308 (Ac-RRRRRQAVK(Ida)IIFV; also: homodimer via Ida linker on Lys9 side chain) [compound 308]”, the half-inhibitory concentration (IC50) was less than 10 µM.
For the substance “309 (Ac-RRRRRQAK(Ida)RIIFV; also: homodimer via Ida linker on Lys8 side chain) [compound 309]”, the IC50 was less than 10 µM.
In the case of “310 (Ac-RRRRRQK(Ida)VRIIFV; also: homodimer via Ida linker on Lys7 side chain) [compound 310]”, the IC50 was less than 10 µM.
For the substance 311 (Ac-RRRRRQAVRITITFK) [compound 311], the IC50 is less than 10 µM.
On to “313 (Ac-RARRRQAVAIGFK(Ida)-NH2; also: homodimer via Ida linker on Lys13 side chain) [compound 313]”, for which the IC50 fell in the range of 10 to 30 µM.
Regarding “314 (Ac-RARRRQAVAIPFK(Ida)-NH2; also: homodimer via Ida linker on Lys13 side chain) [compound 314]”, the IC50 was more than 30 µM.
For the substance “316 (Ac-ARRRRQAVHIYFK(Ida)-NH2; also: homodimer via Ida linker on Lys13 side chain) [compound 316]”, the concentration for half-maximal inhibition (IC50) was less than 10 µM.
On to “317 (Ac-ARRRRQHVAIYFK(Ida)-NH2; also: homodimer via Ida linker on Lys13 side chain) [compound 317]”, for which the IC50 was less than 10 µM.
Regarding “318 (XRRRRQAVAIYFK; Xaa = Acylated Histidine; The side chain of Lysine at position 13 is covalently bound to an Ida linker forming a homodimer of residues 1 through 13.) [compound 318]”, the 50% inhibitory concentration (IC50) was less than 10 µM.
Under “319 (Ac-ARRRRQHVHIYFK(Ida)-NH2; also: homodimer via Ida linker on Lys13 side chain) [compound 319]” stands less than 10 µM.
On to “320 (XRRRRQAVHIYFK; Xaa = Acylated Histidine; The side chain of Lysine at position 13 is covalently bound to an Ida linker forming a homodimer of residues 1 through 13.) [compound 320]”, for which the IC50 was less than 10 µM.
In the case of “321 (XRRRRQHVAIYFK; Xaa = Acylated Histidine; The side chain of Lysine at position 13 is covalently bound to an Ida linker forming a homodimer of residues 1 through 13.) [compound 321]”, the half-maximal inhibitory concentration (IC50) was less than 10 µM.
On to “322 (XRRRRQHVHIYFK; Xaa = Acylated Histidine; The side chain of Lysine at position 13 is covalently bound to an Ida linker forming a homodimer of residues 1 through 13.) [compound 322]”, for which the IC50 is less than 10 µM.
Consider “323 (Ac-RHRRRQHVRIYFK(Ida)-NH2; also: homodimer via Ida linker on Lys13 side chain) [compound 323]”, for which the IC50 is less than 10 µM.
Consider “324 (Ac-RRHRRQHVRIYFK(Ida)-NH2; also: homodimer via Ida linker on Lys13 side chain) [compound 324]”, for which the concentration for half-maximal inhibition (IC50) was less than 10 µM.
Under “325 (Ac-RRRHRQHVRIYFK; not fully specified (residue 13, C-terminus); also: homodimer via Ida linker on Lys13 side chain) [compound 325]” stands less than 10 µM; under “326 (Ac-RRRRHQHVRIYFK; not fully specified (residue 13, C-terminus); also: homodimer via Ida linker on Lys13 side chain) [compound 326]”, less than 10 µM; under “327 (XHRRRQHVRIYFK; not fully specified; Xaa = Acylated Histidine; The side chain of Lysine at position 13 is covalently bound to an Ida linker forming a homodimer of residues 1 through 13.) [compound 327]”, less than 10 µM.
To “328 (XRHRRQHVRIYFK; not fully specified; Xaa = Acylated Histidine; The side chain of Lysine at position 13 is covalently bound to an Ida linker forming a homodimer of residues 1 through 13.) [compound 328]” belongs less than 10 µM; to “329 (Ac-ARRRRQRVAIYFK-NH2; not fully specified (residue 13); also: homodimer via Lys13 side chain, GP3 linker) [compound 329]”, less than 10 µM; to “330 (XRRHRQHVRIYFK; not fully specified; Xaa = Acylated Histidine; The side chain of Lysine at position 13 is covalently bound to an Ida linker forming a homodimer of residues 1 through 13.) [compound 330]”, less than 10 µM.
Turning to “332 (XRRRHQHVRIYFK; not fully specified; Xaa = Acylated Histidine; The side chain of Lysine at position 13 is covalently bound to an Ida linker forming a homodimer of residues 1 through 13.) [compound 332]”, the 50% inhibitory concentration (IC50) is less than 10 µM.
With “333 (Ac-RHHRRQHVRIYFK; not fully specified (residue 13, C-terminus); also: homodimer via Ida linker on Lys13 side chain) [compound 333]”, the 50% inhibitory concentration (IC50) was less than 10 µM.
Take “334 (Ac-ARRRRQRVAIYFK; not fully specified (residue 13, C-terminus); also: homodimer via Ida linker on Lys13 side chain, acetate salt) [compound 334]”: the half-maximal inhibitory concentration (IC50) is less than 10 µM.
As for “335 (Ac-RHRRHQHVRIYFK; not fully specified (residue 13, C-terminus); also: homodimer via Ida linker on Lys13 side chain) [compound 335]”, the concentration for half-maximal inhibition (IC50) is less than 10 µM.
Consider “336 (Ac-ARRRRQRVAIYFK-NH2; not fully specified (residue 13); also: homodimer via Lys13 side chain, Ida-PEG 20 kDa linker) [compound 336]”, for which the half-inhibitory concentration (IC50) was less than 10 µM.
To “337 (Ac-RHRHRQHVRIYFK(Ida(3))-NH2; also: homodimer via Lys13 side chain, Ida linker (Ida amino group Boc)) [compound 337]” belongs less than 10 µM.
“338 (Ac-RHRRRQHVHIYFK(Ida(3))-NH2; also: homodimer via Lys13 side chain, Ida linker (Ida amino group Boc)) [compound 338]”: the half-maximal inhibitory concentration (IC50) is less than 10 µM.
Under “339 (Ac-RRHHRQHVRIYFK(Ida(3))-NH2; also: homodimer via Lys13 side chain, Ida linker (Ida amino group Boc)) [compound 339]” stands less than 10 µM.
Regarding “340 (Ac-RRHRHQHVRIYFK(Ida(3))-NH2; also: homodimer via Lys13 side chain, Ida linker (Ida amino group Boc)) [compound 340]”, the IC50 was less than 10 µM.

As usually defined, the IC50 is the point on the concentration scale where inhibition reaches its midpoint.
